Experimental data as given in patent publication US12303491B2, “Econazole nitrate medical patch and methods of use thereof” (Temple University-Of The Commonwealth System of Higher …, priority 2017, dated 2025).
Converted amounts (≈) assume the structure as drawn.

Legend:
[1] = cited from earlier work
[2] = Drug saturation solubility study; conditions: PVP 1% and 5% solution compared to phosphoric buffer pH 7.4 and pH 5 (P<0.05)
[3] = cited from earlier work; remark: listed apart in the source
[4] = cited from earlier work; remark: listed apart in the source
[5] = In-vitro skin permeation, Franz diffusion cells; assay type: in vitro ADME, human
Text: The patch was studied for the transdermal permeation of EN using human cadaver skin and Franz diffusion cells (FIG. 2A). Three films each with an area of 4 cm^2 square patch were cut from patch film. The skin was cut into 1.5 cm by 1.5 cm pieces, and mount on the Franz diffusion cells with orifice diameter of 9 mm (FIG. 2B). The release liner was removed from the films and the matrix surface was placed in contact with the skin. The area of 0.64 cm^2 of the skin was in contact with the receiving medium. The receiver compartment was sampled at 1, 2, 4, 8, 12 and 24 hr by withdrawing 0.5 mL of the receiving medium and replacing with equal volume of pH 7.4 PBS. At the end of 24 hr, epidermis and dermis were heat separated and extracted for EN content.

dermatomycoses = conditions: topical, dermatological studies, treatment period 2 to 6 weeks; cited from earlier work
[6] = assay type: in vitro ADME, human
Procedure: The cadaver toenails were cut into 7 mm×7 mm (49 mm^2) pieces. The nail pieces were then hydrated at 100% RH overnight prior to start of experiment. The hydrated nail pieces were placed in the neoprene nail adapters (FIG. 2A) with orifice diameter of 5 mm. The receiver compartment was filled with pH 7.4 PBS (3 mL) containing 0.1% w/v gentamicin sulfate and the assembly was maintained at 32±1° C. throughout the duration of the experiment. Each sample was tested in triplicate. The patch in absence of thiourea was used as the control. The patches with diameter of 5 mm were cut. The release liner was removed and the drug matrix was placed in contact with the nail. The new patch was applied every 24 hrs for 14 days. Throughout the duration of the study, the Franz cells were dosed with a new patch daily. On the days 2, 4, 6, 8, 10, 12 and 14, 0.5 mL of the sample was withdrawn from the receiver compartment and replaced with equal volume of new receiving medium.

[7] = Nail penetration study in PVP solution; conditions: 1% and 5% PVP group compared to phosphoric buffer pH 7.4 and pH 5 groups
[8] = Drug release rate from acrylate patch; assay type: physicochemical
Procedure: The percentage of TU was maintained at a concentration off 1%. Three concentrations of EN (1% w/w, 2.5% w/w and 5% w/w) and three concentrations of PG (5% w/w, 10% w/w and 20% w/w) were evaluated. The acrylate films were first fabricated with DURO-TAK® 87-4098. The total weight of the mixture was 5 g. Methanol was the only solvent used for dissolving the components in the acrylates films. The purpose of this was to screen out what concentration of EN and PG could be added into the polymer to form an acceptable patch. Then according to the EN and PG concentration determined from the DURO-TAK® 87-4098 films, fabricated patches using acrylate grades DURO-TAK® 87-2287, DURO-TAK® 87-4287 and DURO-TAK® 87-9301.
Drug release from hydrophobic polymers is slow. The adhesives polymer used are hydrophobic polymers. To increase polymer chain mobility, the addition of a hydrophobic plasticizer was considered. Triacetin (TAC) and triethyl citrate (TEC) were the selected plasticizers. The adhesive polymer acrylate had been selected as the best polymer system. TAC or TEC was added into the acrylate polymer at three different levels. These were, 5%, 10% and 20% (based on the 5 g matrix weight).

[9] = Crystallization in patch films (visual observation); assay type: physicochemical
Procedure: The drug (EN) and the PEs, thiourea (TU) and propylene glycol (PG), were dissolved or uniformly dispersed in the pressure sensitive adhesive(s) (PSAs), and spread onto a release liner. The drug (EN) and the nail PE (TU) were weighed out in a glass bottle and dissolved in solvent (methanol) and vortexed for 1 min. Then PG was weighed and added as solubilizer for EN and plasticizer for the patch. The solution was vortexed with the methanol as solvent until a single phase was obtained. Afterwards, the hydrophobic plasticizers triethyl citrate and hydrophilic polymer polyvinylpyrrolidone were weighed and mixed with the solvents prior to addition of PG. Finally the polymer was weighed out into the glass bottle and vortexed for 5 min to form a homogenous mixture. The formulae for the patch include but are not limited to those in Table 3. The bottles were then placed on the bottle roller and mixed overnight at medium speed to complete the mixing and remove the air bubbles generated during vortexing the polymer. […]
The percentage of TU was maintained at a concentration off 1%. Three concentrations of EN (1% w/w, 2.5% w/w and 5% w/w) and three concentrations of PG (5% w/w, 10% w/w and 20% w/w) were evaluated. […] Then according to the EN and PG concentration determined from the DURO-TAK® 87-4098 films, fabricated patches using acrylate grades DURO-TAK® 87-2287, DURO-TAK® 87-4287 and DURO-TAK® 87-9301. […]

Streptococcus faecalis = conditions: cited from earlier work
plasma protein = conditions: cited from earlier work
Streptococcus faecium = conditions: cited from earlier work
Streptococcus pyogenes = conditions: cited from earlier work
Listeria monocytogenes = conditions: cited from earlier work
[10] = tested on: Staphylococcus epidermidis; conditions: cited from earlier work
Bacillus subtilis = conditions: cited from earlier work
Streptococcus bovis = conditions: cited from earlier work
Staphylococcus aureus = conditions: cited from earlier work
[11] = tested on: Corynebacterium diphtheria; conditions: cited from earlier work

SMILES: Clc1ccc(COC(Cn2ccnc2)c2ccc(Cl)cc2Cl)cc1 (stereo not shown) [econazole nitrate, Econazole nitrate]
- topically applied drug remaining on the skin surface ([1]; as a cream, patients): about 90%
- saturation solubility [2]: significantly higher
- Water Solubility ([3]; at 19° C.): <0.1 g/100 mL at 19 °C
- Log P [3]: 5.5
- pKa [3]: 6.77
- aqueous solubility [4]: 1.5 micrograms/ml
- drug amount in the receiver compartment ([5]; human cadaver skin, after 24 hours): no drug amount appeared
- drug amount in the dermis ([5]; patch with thiourea vs without, 24 hr): no significant difference
- drug amount in the epidermis ([5]; patch with thiourea, 24 hr): 5.63 ug/cm^2
- drug amount in the epidermis ([5]; patch without thiourea, 24 hr): 1.73 ug/cm^2
- patients cured (dermatomycoses): about 90%
- drug amount in nail plate [6]: significantly increase
- amount penetrated into the nail plate [7]: significantly higher
- drug release rate ([8]; acrylate patch in absence of PVP): 22.347 μg/cm^2/hour
- drug release rate ([8]; acrylate patch with 1% PVP): 26.713 μg/cm^2/hour
- drug release rate ([8]; acrylate patch with 5% PVP): 27.853 μg/cm^2/hour
- crystallization in patch ([9]; acrylate PSA patch, drug load 5% w/w, no PG added): slight crystallization
- crystallization in patch ([9]; acrylate patch screening, EN concentration raised to 5% w/w): crystallization occurred

SMILES: Cc1cc(C2CCCCC2)n(O)c(=O)c1 [CPO, ciclopirox]
- aqueous solubility [4]: 1.4 mg/mL (≈ 6750 µM)

SMILES: Clc1ccc(COC(Cn2ccnc2)c2ccc(Cl)cc2Cl)cc1 (stereo not shown) [econazole]
- unchanged drug in urine ([1]; human, in vivo): No unchanged econazole is detected
- dose recovered in urine and feces ([1]; vaginal cream, over 96 hours): less than 3%
- MIC (Streptococcus faecalis): 25 µg/mL (≈ 65.5 µM)
- plasma protein binding (plasma protein): greater than 98%
- MIC (Streptococcus faecium): 25 µg/mL (≈ 65.5 µM)
- MIC (Streptococcus pyogenes): 12.5 µg/mL (≈ 32.7 µM)
- MIC (Listeria monocytogenes): 1.56 µg/mL (≈ 4.09 µM)
- MIC [10]: 12.5 µg/mL (≈ 32.7 µM)
- MIC (Bacillus subtilis): 12.5 µg/mL (≈ 32.7 µM)
- MIC (Streptococcus bovis): 6.25 µg/mL (≈ 16.4 µM)
- MIC (Staphylococcus aureus): 12.5 µg/mL (≈ 32.7 µM)
- MIC [11]: 0.78 µg/mL (≈ 2.04 µM)

SMILES: Clc1ccc(COC(Cn2ccnc2)c2ccc(Cl)cc2Cl)c(Cl)c1 (stereo not shown) [miconazole base, miconazole]
- MIC (Streptococcus faecalis): 25 µg/mL (≈ 60.1 µM)
- MIC (Streptococcus faecium): 25 µg/mL (≈ 60.1 µM)
- MIC (Streptococcus pyogenes): 6.25 µg/mL (≈ 15 µM)
- MIC (Listeria monocytogenes): 1.56 µg/mL (≈ 3.75 µM)
- MIC [10]: 6.25 µg/mL (≈ 15 µM)
- MIC (Bacillus subtilis): 3.12 µg/mL (≈ 7.5 µM)
- MIC (Streptococcus bovis): 3.12 µg/mL (≈ 7.5 µM)
- MIC (Staphylococcus aureus): 6.25 µg/mL (≈ 15 µM)
- MIC [11]: 0.39 µg/mL (≈ 0.937 µM)
